Measured values: patent US9017681B2, “Adenylyl cyclases as novel targets for antibactrial interventions” (Cornell Research Foundation, Inc., priority 2007, dated 2015)
Entries after “also recorded” stand apart in the source; their conditions may differ. Like-named read-outs stand apart in the source and are kept apart here.

What was measured:
human sAC [1] = target: T1, human sAC (Homo sapiens, UniProt Q96PN6); assay: in vitro adenylyl cyclase assay with purified human sAC protein (cAMP by Correlate-EIA); format: biochemical; settings: for inhibition at 100 µM: 100 μM of compound
T1 construct: made in house
T1 sequence (Q96PN6 1-469 limits assumed): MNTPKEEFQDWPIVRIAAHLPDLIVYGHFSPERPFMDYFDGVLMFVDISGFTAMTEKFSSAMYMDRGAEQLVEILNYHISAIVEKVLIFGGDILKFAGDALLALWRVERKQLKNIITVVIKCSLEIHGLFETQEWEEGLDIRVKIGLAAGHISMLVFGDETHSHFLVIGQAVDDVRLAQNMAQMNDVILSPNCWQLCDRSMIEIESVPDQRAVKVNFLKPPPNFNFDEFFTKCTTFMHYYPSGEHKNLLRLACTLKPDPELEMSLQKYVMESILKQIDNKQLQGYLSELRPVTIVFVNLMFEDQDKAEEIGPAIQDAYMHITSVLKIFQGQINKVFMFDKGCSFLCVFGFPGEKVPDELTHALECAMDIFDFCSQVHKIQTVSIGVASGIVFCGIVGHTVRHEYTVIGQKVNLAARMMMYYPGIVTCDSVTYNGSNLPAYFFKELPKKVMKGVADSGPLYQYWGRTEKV
Procedure: Purified human sAC protein was used in an in vitro adenylyl cyclase assay. Purification of the protein is described in detail in Litvin et al. 2003. (J. Biol. Chem. 278:15922-15926). This paper also describes the general conditions for a sAC cyclase assay. The specific conditions for the in vitro assay are as follows.
For basal sAC activity, an assay master mixture with sufficient volume for all reactions was prepared containing:
100 U/ml creatine phosphokinase (CPK)
An aliquot of the master mixture was added to the purified human sAC. The assay mixture also included the indicated concentration of KH compound, or an equivalent volume of vehicle (i.e., DMSO) as control. The reaction was started by adding 5 mM ATP (total assay volume=100 μL). The reaction mixture was incubated at 30° C. for 30 minutes and then stopped by adding 100 μl […]. Stimulated assay conditions involve adding 40 mM bicarbonate and 5 mM CaCl2 to the above master mixture.
(§1) Cyclic AMP levels were measured in each sample using the Correlate-EIA Direct Cyclic AMP assay kit from Assay Designs as per manufacturers instructions.

human sAC [2] = target: T1, human sAC; assay: cellular cAMP accumulation assay in 4-4 cells (hsACt stably transfected into 293T), IBMX; format: cell-based; settings: for IC50: stable cell line overexpressing human sAC, 500 μM IBMX, read-out: 4-4, Basal approximate IC50 (or the dose range where the IC50 should lie)
Procedure: 293T cells or 4-4 […] stably transfected into 293T) were grown in 75 cm2 Tissue Culture Flasks until nearly confluent using DMEM (10% FBS, 1% L-Glutamine, 1% Penicillin/Streptomycin). Cells were released from the flask with 3 ml of trypsin followed by addition of 7 ml of DMEM to neutralize the trypsin. Cells were mixed by pipetting up and down with 10 ml serological pipette. To a 3 ml aliquot of the cell mixture, 6 ml of DMEM (prewarmed to 37° C.) was added followed by thorough mixing by picking up the entire 9 mls using a repeat pipettor, and slowly pipetting out against the wall of container. This was repeated this ten times to ensure the mixture in homogenous. 100 μL of cells were then added to each pre-siliconized 1.7 ml Eppindorf tubes (Costar #3207) followed by a 60 min incubation at 37° C. and 5% CO2. This incubation was performed in 20-tube, round, floating racks (VWR #60986-100), which enable a quick transfer of the samples to a water bath, and the ability to mix several samples simultaneously. Following the incubation, 1 μL of the compound in DMSO was added (or just DMSO for controls). The cells were mixed before and after adding the compound, by a brief (and light) vortexing. The compounds were added while the cells were in the 37° C. water bath, followed by a 10 min incubation at 37° C. and 5% CO2. Following this incubation, 1 μL it of IBMX or 1 μL of IBMX+Forskolin was added with Repeat Pipettor. The 4-4 cells receive the IBMX to a final concentration of 500 μM IBMX. […] Both the IBMX mix (for 4-4 cells), and the IBMX/FSK mix (for 293T cells) were 100×, and were dissolved in DMSO. Cells were mixed and incubated at 37° C. and 5% CO2 for 15 min. The assay was stopped by placing the cells in an ice bath. Cells were pelleted by centrifugation at 2000×G for 7 min at 4° C. The supernatant was aspirated and 250 μL of 0.1 N HCl was added to each cell pellet followed by through vortexing for 1 min. Following a 10 min incubation at room temperature, 30 μL of each sample was added to 70 μL of 0.1 N HCl and the cAMP levels were measured using the protocol for the Direct Cyclic AMP Kit (Assay Designs, Inc. #901-066). This 30 μL plus 70 μL of 0.1 N HCl makes up the sample described in step 5 of the Assay Designs' protocol. The samples should lie in the linear range of the assay.

[3] = test system: endogenous transmembrane adenylyl cyclases; assay: cellular cAMP accumulation assay in 293T cells + IBMX + forskolin; format: cell-based, human; settings: for IC50: 293T cells, 500 μM IBMX and 10 μM forskolin, endogenous tmAC activity, read-out: 293T + FSK
Procedure: 293T cells or 4-4 cells (hsACt stably transfected into 293T) were grown in 75 cm2 Tissue Culture Flasks until nearly confluent using DMEM (10% FBS, 1% L-Glutamine, 1% Penicillin/Streptomycin). Cells were released from the flask with 3 ml of trypsin followed by addition of 7 ml of DMEM to neutralize the trypsin. Cells were mixed by pipetting up and down with 10 ml serological pipette. To a 3 ml aliquot of the cell mixture, 6 ml of DMEM (prewarmed to 37° C.) was added followed by thorough mixing by picking up the entire 9 mls using a repeat pipettor, and slowly pipetting out against the wall of container. This was repeated this ten times to ensure the mixture in homogenous. 100 μL of cells were then added to each pre-siliconized 1.7 ml Eppindorf tubes (Costar #3207) followed by a 60 min incubation at 37° C. and 5% CO2. This incubation was performed in 20-tube, round, floating racks (VWR #60986-100), which enable a quick transfer of the samples to a water bath, and the ability to mix several samples simultaneously. Following the incubation, 1 μL of the compound in DMSO was added (or just DMSO for controls). The cells were mixed before and after adding the compound, by a brief (and light) vortexing. The compounds were added while the cells were in the 37° C. water bath, followed by a 10 min incubation at 37° C. and 5% CO2. Following this incubation, 1 μL it of IBMX or 1 μL of IBMX+Forskolin was added with Repeat Pipettor. The 4-4 cells receive the IBMX to a final concentration of 500 μM IBMX. The 293T cells receive IBMX and Forskolin to final concentration of 500 μM IBMX and 10 μM, respectively. Both the IBMX mix (for 4-4 cells), and the IBMX/FSK mix (for 293T cells) were 100×, and were dissolved in DMSO. Cells were mixed and incubated at 37° C. and 5% CO2 for 15 min. The assay was stopped by placing the cells in an ice bath. Cells were pelleted by centrifugation at 2000×G for 7 min at 4° C. The supernatant was aspirated and 250 μL of 0.1 N HCl was added to each cell pellet followed by through vortexing for 1 min. Following a 10 min incubation at room temperature, 30 μL of each sample was added to 70 μL of 0.1 N HCl and the cAMP levels were measured using the protocol for the Direct Cyclic AMP Kit (Assay Designs, Inc. #901-066). This 30 μL plus 70 μL of 0.1 N HCl makes up the sample described in step 5 of the Assay Designs' protocol. The samples should lie in the linear range of the assay.

[4] = test system: P. aeruginosa CyaB (a Class III adenylyl cyclase); assay: Pseudomonas adenylyl cyclase assay with purified His-CyaB; format: biochemical, Pseudomonas aeruginosa; settings: increasing concentrations of compound, FIG. 1 / FIG. 2
Procedure: (§2) FIG. 1. […] The CyaB was heterologously expressed in E. coli as a poly-histidine tagged fusion protein and purified using a nickel column. Adenylyl cyclase activity was determined by measuring cyclic AMP levels using the Correlate-EIA Direct Cyclic AMP assay kit from Assay Designs as per manufacturers instructions.
as §2, with “2.” for “1.”
P. aeruginosa CyaB (a Class III adenylyl cyclase) was heterologously expressed in E. coli as a HIS-tagged, fusion protein. Expression of the fusion protein was induced by Isopropyl β-D-1-thiogalactopyranoside (IPTG) t at 21° C. (empirically found to be best temperature for expression). The His-CyaB fusion protein was purified using a nickel affinity column according to standard protocols in the absence of any reducing agent. Eluted protein was dialyzed into storage buffer consisting of: 50 mM Tris (pH 8.5), 10 mM NaCl, 2 mM MgCl2, and 25% glycerol.
The purified CyaB was assayed for cyclase activity as follows. […]
as §1

[5] = BASAL human sAC in vitro activity, read-out: % Inhibition (100 μM), hsACt-Basal
[6] = stimulated human sAC in vitro activity, read-out: % Inhibition (100 μM), hsACt-Stim.
[7] = BASAL activity of human sAC in vitro (just Mg-ATP, no calcium or bicarbonate), read-out: hsACt-Basal approximate IC50 (or the dose range where the IC50 should lie)
[8] = stimulated activity of human sAC in vitro (calcium and bicarbonate stimulated), read-out: hsACt-Stim. approximate IC50 (or the dose range where the IC50 should lie)

Row | SMILES | inhibition at 100 µM (human sAC [1]; [5]) [%] | inhibition at 100 µM (human sAC [1]; [6]) [%] | IC50 (human sAC [1]; [7]) [µM] | IC50 (human sAC [1]; [8]) [µM] | IC50 (human sAC [2]) [µM] | IC50 [3] [µM] | effect on CyaB adenylyl cyclase activity [4] | cellular toxicity remark, 4-4 Basal (human sAC [2]; 4-4 cells) | cellular toxicity remark, 293T + FSK ([3]; 293T cells + FSK)
1 | COc1cc(/C(C)=N\NC(=O)CSc2nc3ccccc3[nH]2)ccc1O [KH7.114] | 0 | 0 | > 100 | > 100 | 56 to 167 | > 500 |  |  | 
2 | C/C(=N\NC(=O)CSc1nc2ccccc2[nH]1)c1ccc(Cl)cc1 [KH7.110] | 90 | 90 | 10 to 100 | 10 to 100 | 30 to 60 | > 120 |  |  | 
3 | O=C(CSc1nc2ccccc2[nH]1)N/N=C/c1ccc(O)c(O)c1 [KH7.148] | 70 | 80 | 10 to 100 | 1 to 10 |  |  | inhibitor; also recorded: decrease in the activity |  | 
4 | O=C(CSc1nc2ccccc2[nH]1)N/N=C/c1cc(Br)ccc1O [KH7.103] | 100 | 100 | 10 to 100 | 10 to 100 | 60 to 120 | > 120 |  |  | 
5 | CCCOc1ccc(/C=N/NC(=O)CSc2nc3ccccc3[nH]2)cc1 [KH7.111] | 70 | 70 | 10 to 100 | 10 to 100 | 3 to 30 | 120 |  |  | 
6 | COc1ccc(/C(C)=N\NC(=O)CSc2nc3ccccc3[nH]2)cc1 [KH7.106] |  |  |  |  |  | > 500 |  |  | 
7 | O=C(CSc1nc2ccccc2[nH]1)N/N=C/c1ccc(Cl)cc1Cl [KH7.105] | 90 | 90 | 10 to 100 | 10 to 100 | 15 | 60 |  |  | 
8 | C/C(=N/NC(=O)CSc1nc2ccccc2[nH]1)c1ccncc1 [KH7.117] | 0 | 0 | > 100 | > 100 | 167 to 500 | > 500 |  |  | 
9 | C/C(=N\NC(=O)CSc1nc2ccccc2[nH]1)c1ccco1 [KH7.109] | 0 | 0 | > 100 | > 100 | ~120 | > 120 |  |  | 
10 | C/C(=N\NC(=O)CSc1nc2ccccc2[nH]1)c1ccccc1 [KH7.108] | 0 | 0 | > 100 | > 100 | 30 to 60 | 60 to 120 |  | may be cellular toxicity | may be cellular toxicity
11 | O=C(CSc1nc2ccccc2[nH]1)N/N=C/c1cccc(Br)c1 [KH7.104] | 70 | 85 | 10 to 100 | 10 to 100 | 15 | 60 to 120 |  |  | 
12 | C/C(=N\NC(=O)CSc1nc2ccccc2[nH]1)c1ccc(Br)cc1 [KH7.107] | 95 | 95 | 10 to 100 | 10 to 100 | 60 to 120 | > 120 |  |  | 
13 | CC(Sc1nc2ccccc2[nH]1)C(=O)N/N=C/c1ccc([N+](=O)[O-])cc1 (centres unmarked) [KH7.101] | 50 | 50 | 10 to 100 | 10 to 100 | 30 | > 120 |  |  | 
14 | O=C(CSc1nc2ccccc2[nH]1)NCCc1ccccc1 [KH7.102] | 0 | 0 | > 100 | > 100 | 100 | > 500 |  |  | 
